Data taken from US20170050957A1, “4-AMINO-6-(HETEROCYCLIC)PICOLINATES AND 6-AMINO-2-(HETEROCYCLIC)PYRIMIDINE-4-CARBOXYLATES AND THEIR USE AS HERBICIDES” (Dow AgroSciences LLC, priority 2013, published 2017).
Like-named read-outs stand apart in the source and are kept apart here.

Assays:
[1] = tested on: Key Broadleaf Weed and Crop Species; assay: Post-emergent Test II herbicidal activity (Table 15); format: in vivo; conditions: post-emergence, 336 h, 14 d; for pest or weed control at 35 g/ha: 35 g ai/ha; for pest or weed control at 70 g/ha: 70 g ai/ha; for pest or weed control at 140 g/ha: 140 g ai/ha
Method: (§1) Post-emergent Test II: Seeds or nutlets of the desired test plant species were planted in Sun Gro Metro-Mix® 360 planting mixture, which typically has a pH of 6.0 to 6.8 and an organic matter content of about 30 percent, in plastic pots with a surface area of 64 square centimeters. When required to ensure good germination and healthy plants, a fungicide treatment and/or other chemical or physical treatment was applied. The plants were grown for 7-21 d in a greenhouse with an approximate 15 h photoperiod which was maintained at about 23-29° C. during the day and 22-28° C. during the night. Nutrients and water were added on a regular basis and supplemental lighting was provided with overhead metal halide 1000-Watt lamps as necessary. The plants were employed for testing when they reached the first or second true leaf stage.
(§2) A weighed amount, determined by the highest rate to be tested, of each test compound was placed in a 25 mL glass vial and was dissolved in 4 mL of a 97:3 v/v mixture of acetone and DMSO to obtain concentrated stock solutions. […] The concentrated stock solutions obtained were diluted with 20 mL of an aqueous mixture containing acetone, water, isopropyl alcohol, DMSO, Atplus 411F crop oil concentrate, and Triton® X-155 surfactant in a 48.5:39:10:1.5:1.0:0.02 v/v ratio to obtain spray solutions containing the highest application rates. Additional application rates were obtained by serial dilution of 12 mL of the high rate solution into a solution containing 2 mL of 97:3 v/v mixture of acetone and DMSO and 10 mL of an aqueous mixture containing acetone, water, isopropyl alcohol, DMSO, Atplus 411F crop oil concentrate, and Triton X-155 surfactant in a 48.5:39:10:1.5:1.0:0.02 v/v ratio to obtain 1/2×, 1/4×, 1/8× and 1/16× rates of the high rate. Compound requirements are based upon a 12 mL application volume at a rate of 187 liters per hectare (L/ha). Formulated compounds were applied to the plant material with an overhead Mandel track sprayer equipped with 8002E nozzles calibrated to deliver 187 L/ha over an application area of 0.503 square meters at a spray height of 18 inches (43 cm) above the average plant canopy height. Control plants were sprayed in the same manner with the solvent blank.
(§3) The treated plants and control plants were placed in a greenhouse as described above and watered by subirrigation to prevent wash-off of the test compounds. After 14 d, the condition of the test plants as compared with that of the untreated plants was determined visually and scored on a scale of 0 to 100 percent where 0 corresponds to no injury and 100 corresponds to complete kill.

[2] = tested on: Key Grass and Sedge Weeds as well as Grass Crops; assay: Post-emergent Test II herbicidal activity (Table 16); format: in vivo; conditions: post-emergence, 336 h, 14 d; for pest or weed control at 35 g/ha: 35 g ai/ha; for pest or weed control at 70 g/ha: 70 g ai/ha; for pest or weed control at 140 g/ha: 140 g ai/ha
Method: as §1, §2, §3

[3] = Abutilon theophrasti, velvetleaf (Abutilon theophrasti), read-out: Visual Growth Reduction (%) 14 Days After Application, ABUTH
[4] = Amaranthus retroflexus, redroot pigweed (Amaranthus retroflexus), read-out: Visual Growth Reduction (%) 14 Days After Application, AMARE
[5] = Brassica napus, oilseed rape, canola (Brassica napus), read-out: Visual Growth Reduction (%) 14 Days After Application, BRSNN
[6] = Chenopodium album, lambsquarters (Chenopodium album), read-out: Visual Growth Reduction (%) 14 Days After Application, CHEAL
[7] = Euphorbia heterophylla, wild poinsettia (Euphorbia heterophylla), read-out: Visual Growth Reduction (%) 14 Days After Application, EPHHL
[8] = Helianthus annuus, sunflower (Helianthus annuus), read-out: Visual Growth Reduction (%) 14 Days After Application, HELAN
[9] = Cyperus esculentus, yellow nutsedge (Cyperus esculentus), read-out: Visual Growth Reduction (%) 14 Days After Application, CYPES
[10] = Echinochloa crus-galli, barnyardgrass (Echinochloa crus-galli), read-out: Visual Growth Reduction (%) 14 Days After Application, ECHCG
[11] = Oryza sativa, rice (Oryza sativa), read-out: Visual Growth Reduction (%) 14 Days After Application, ORYSA
[12] = Setaria faberi, giant foxtail (Setaria faberi), read-out: Visual Growth Reduction (%) 14 Days After Application, SETFA
[13] = Triticum aestivum, wheat, spring (Triticum aestivum), read-out: Visual Growth Reduction (%) 14 Days After Application, TRZAS
[14] = Zea mays, maize, corn (Zea mays), read-out: Visual Growth Reduction (%) 14 Days After Application, ZEAMX

Structure (SMILES)	pest or weed control at 35 g/ha [1, 3] [%]	pest or weed control at 70 g/ha [1, 3] [%]	pest or weed control at 35 g/ha [1, 4] [%]	pest or weed control at 70 g/ha [1, 4] [%]	pest or weed control at 35 g/ha [1, 5] [%]	pest or weed control at 70 g/ha [1, 5] [%]	pest or weed control at 35 g/ha [1, 6] [%]	pest or weed control at 70 g/ha [1, 6] [%]	pest or weed control at 35 g/ha [1, 7] [%]	pest or weed control at 70 g/ha [1, 7] [%]	pest or weed control at 35 g/ha [1, 8] [%]	pest or weed control at 70 g/ha [1, 8] [%]	pest or weed control at 35 g/ha [2, 9] [%]	pest or weed control at 70 g/ha [2, 9] [%]	pest or weed control at 140 g/ha [2, 9] [%]	pest or weed control at 35 g/ha [2, 10] [%]	pest or weed control at 70 g/ha [2, 10] [%]	pest or weed control at 35 g/ha [2, 11] [%]	pest or weed control at 70 g/ha [2, 11] [%]	melting point [°C]	further results
COC(=O)c1nc(-c2ccc3cc[nH]c3c2)cc(N)c1Cl [Compound 1.21]	60 to 74	60 to 74	0 to 29	0 to 29	0 to 29	0 to 29	45 to 59	85 to 94	75 to 84	85 to 94	45 to 59	75 to 84	0 to 29	0 to 29	0 to 29	0 to 29	0 to 29	0 to 29	0 to 29	83 to 85	pest or weed control at 140 g/ha [2, 11]: 0 to 29%; pest or weed control at 140 g/ha [2, 12]: 0 to 29%; pest or weed control at 35 g/ha [2, 13]: 0 to 29%; pest or weed control at 70 g/ha [2, 13]: 0 to 29%; pest or weed control at 140 g/ha [2, 13]: 0 to 29%; pest or weed control at 35 g/ha [2, 14]: 0 to 29%; pest or weed control at 70 g/ha [2, 14]: 0 to 29%; pest or weed control at 140 g/ha [2, 14]: 0 to 29%
C=Cc1c(N)nc(-c2ccc3cc[nH]c3c2F)nc1C(=O)O [Compound 1.39]	0 to 29	0 to 29	95 to 100	95 to 100	75 to 84	85 to 94	95 to 100	75 to 84	85 to 94	75 to 84	0 to 29	0 to 29	0 to 29	0 to 29	–	0 to 29	0 to 29	0 to 29	0 to 29	209 to 211	pest or weed control at 35 g/ha [2, 12]: 0 to 29%; pest or weed control at 70 g/ha [2, 12]: 0 to 29%; pest or weed control at 35 g/ha [2, 13]: 0 to 29%; pest or weed control at 70 g/ha [2, 13]: 0 to 29%; pest or weed control at 35 g/ha [2, 14]: 0 to 29%; pest or weed control at 70 g/ha [2, 14]: 0 to 29%
COC(=O)c1nc(-c2ccc(Cl)c3cc[nH]c23)cc(N)c1Cl [Compound 1.49]	85 to 94	85 to 94	0 to 29	30 to 44	0 to 29	0 to 29	85 to 94	85 to 94	0 to 29	0 to 29	0 to 29	0 to 29	–	–	–	–	–	–	–	186 to 188	pest or weed control at 140 g/ha [1, 3]: 85 to 94%; pest or weed control at 140 g/ha [1, 4]: 0 to 29%; pest or weed control at 140 g/ha [1, 5]: 0 to 29%; pest or weed control at 140 g/ha [1, 6]: 95 to 100%; pest or weed control at 140 g/ha [1, 7]: 0 to 29%; pest or weed control at 140 g/ha [1, 8]: 45 to 59%
Nc1c(F)c(-c2cccc3occc23)nc(C(=O)O)c1Cl [Compound 2.17]	–	–	–	–	–	–	–	–	–	–	–	–	–	–	95 to 100	–	–	–	–	170 to 173	pest or weed control at 140 g/ha [1, 3]: 75 to 84%; pest or weed control at 140 g/ha [1, 4]: 95 to 100%; pest or weed control at 140 g/ha [1, 5]: 75 to 84%; pest or weed control at 140 g/ha [1, 6]: 95 to 100%; pest or weed control at 140 g/ha [1, 7]: 95 to 100%; pest or weed control at 140 g/ha [1, 8]: 85 to 94%; pest or weed control at 140 g/ha [2, 10]: 75 to 84%; pest or weed control at 140 g/ha [2, 11]: 0 to 29%; pest or weed control at 140 g/ha [2, 12]: 0 to 29%; pest or weed control at 140 g/ha [2, 13]: 0 to 29%; pest or weed control at 140 g/ha [2, 14]: 30 to 44%
